Experimental data as given in PubChem BioAssay (NCI).
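48-hour exposure; five concentrations; linearly interpolated endpoints. TGI is the concentration that stops growth completely.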

Experiments:
Test in all cases: DTP human tumour cell line panel, 48 h
TK-10 renal = test system: TK-10 renal
NCI-H23 lung = test system: NCI-H23 lung
MDA-MB-231 breast = test system: MDA-MB-231 breast
T-47D breast = test system: T-47D breast
SF-268 CNS = test system: SF-268 CNS
COLO 205 colon = test system: COLO 205 colon
CCRF-CEM leukemia = test system: CCRF-CEM leukemia
UACC-62 melanoma = test system: UACC-62 melanoma
OVCAR-8 ovarian = test system: OVCAR-8 ovarian
MDA-MB-435 = test system: MDA-MB-435
A498 renal = test system: A498 renal
MCF7 breast = test system: MCF7 breast
SN12C renal = test system: SN12C renal
M14 melanoma = test system: M14 melanoma
SK-MEL-2 melanoma = test system: SK-MEL-2 melanoma
SK-MEL-28 melanoma = test system: SK-MEL-28 melanoma
SW-620 colon = test system: SW-620 colon
NCI-H226 lung = test system: NCI-H226 lung
DU-145 prostate = test system: DU-145 prostate
PC-3 prostate = test system: PC-3 prostate
A549 NSCLC = test system: A549 NSCLC
RXF 393 renal = test system: RXF 393 renal
EKVX NSCLC = test system: EKVX NSCLC
HL-60(TB) leukemia = test system: HL-60(TB) leukemia
NCI-H522 lung = test system: NCI-H522 lung
U251 CNS = test system: U251 CNS
SK-MEL-5 melanoma = test system: SK-MEL-5 melanoma
HS 578T breast = test system: HS 578T breast
UACC-257 melanoma = test system: UACC-257 melanoma
KM12 colon = test system: KM12 colon
SNB-19 CNS = test system: SNB-19 CNS
NCI-H460 lung = test system: NCI-H460 lung
HT29 colon = test system: HT29 colon
SNB-75 CNS = test system: SNB-75 CNS
ACHN renal = test system: ACHN renal
MOLT-4 leukemia = test system: MOLT-4 leukemia
HOP-62 NSCLC = test system: HOP-62 NSCLC
SF-295 CNS = test system: SF-295 CNS
OVCAR-5 ovarian = test system: OVCAR-5 ovarian
NCI/ADR-RES ovarian = test system: NCI/ADR-RES ovarian
786-0 renal = test system: 786-0 renal
OVCAR-4 ovarian = test system: OVCAR-4 ovarian
K-562 leukemia = test system: K-562 leukemia
UO-31 renal = test system: UO-31 renal
SR leukemia = test system: SR leukemia
RPMI-8226 leukemia = test system: RPMI-8226 leukemia
IGROV1 ovarian = test system: IGROV1 ovarian
MALME-3M melanoma = test system: MALME-3M melanoma
HCT-116 colon = test system: HCT-116 colon
OVCAR-3 ovarian = test system: OVCAR-3 ovarian
HOP-92 NSCLC = test system: HOP-92 NSCLC
HCC-2998 colon = test system: HCC-2998 colon
CAKI-1 renal = test system: CAKI-1 renal
HCT-15 colon = test system: HCT-15 colon
SF-539 CNS = test system: SF-539 CNS
LOX IMVI melanoma = test system: LOX IMVI melanoma

## CC(C)(C)C1=NN=C2c3ccccc3C(=O)C21 (stereo unspecified)
TK-10 renal
  TGI: > 100 µM
NCI-H23 lung
  TGI: > 100 µM
MDA-MB-231 breast
  TGI: > 100 µM
T-47D breast
  TGI: > 100 µM
SF-268 CNS
  TGI: > 100 µM
COLO 205 colon
  TGI: > 100 µM
CCRF-CEM leukemia
  TGI: > 100 µM
UACC-62 melanoma
  TGI: > 100 µM
OVCAR-8 ovarian
  TGI: > 100 µM
MDA-MB-435
  TGI: > 100 µM
A498 renal
  TGI: 99.5 µM
MCF7 breast
  TGI: > 100 µM
SN12C renal
  TGI: > 100 µM
M14 melanoma
  TGI: > 100 µM
SK-MEL-2 melanoma
  TGI: > 100 µM
SK-MEL-28 melanoma
  TGI: > 100 µM
SW-620 colon
  TGI: > 100 µM
NCI-H226 lung
  TGI: > 100 µM
DU-145 prostate
  TGI: > 100 µM
PC-3 prostate
  TGI: > 100 µM
A549 NSCLC
  TGI: > 100 µM
RXF 393 renal
  TGI: > 100 µM
EKVX NSCLC
  TGI: > 100 µM
HL-60(TB) leukemia
  TGI: > 100 µM
NCI-H522 lung
  TGI: > 100 µM
U251 CNS
  TGI: > 100 µM
SK-MEL-5 melanoma
  TGI: 54.3 µM
HS 578T breast
  TGI: 82.1 µM
UACC-257 melanoma
  TGI: > 100 µM
KM12 colon
  TGI: > 100 µM
SNB-19 CNS
  TGI: > 100 µM
NCI-H460 lung
  TGI: > 100 µM
HT29 colon
  TGI: > 100 µM
SNB-75 CNS
  TGI: > 100 µM
ACHN renal
  TGI: > 100 µM
MOLT-4 leukemia
  TGI: 85 µM
HOP-62 NSCLC
  TGI: > 100 µM
SF-295 CNS
  TGI: > 100 µM
OVCAR-5 ovarian
  TGI: > 100 µM
NCI/ADR-RES ovarian
  TGI: > 100 µM
786-0 renal
  TGI: > 100 µM
OVCAR-4 ovarian
  TGI: > 100 µM
K-562 leukemia
  TGI: > 100 µM
UO-31 renal
  TGI: > 100 µM
SR leukemia
  TGI: 83 µM
RPMI-8226 leukemia
  TGI: > 100 µM
IGROV1 ovarian
  TGI: > 100 µM
MALME-3M melanoma
  TGI: > 100 µM
HCT-116 colon
  TGI: > 100 µM
OVCAR-3 ovarian
  TGI: > 100 µM
HOP-92 NSCLC
  TGI: 63.7 µM
HCC-2998 colon
  TGI: > 100 µM
CAKI-1 renal
  TGI: > 100 µM
HCT-15 colon
  TGI: > 100 µM
SF-539 CNS
  TGI: > 100 µM
LOX IMVI melanoma
  TGI: > 100 µM
